Test results: US20180153159A1, “FATTY NITRILE SOLVENTS FOR AGRICULTURAL FORMULATIONS” (priority 2015, published 2018)

Assays:
[1] = Solubility of various pesticides in alkyl nitrile; type: physicochemical
Excerpt: In Table 1, the designation of C14-18 represents the nitrile derived from tallow and C8-C16 represents the nitrile derived from coco. Note that the C14-C18 tallow nitrile corresponds to an R value of C13-C17 in Formula (I), because Formula (I) includes a carbon atom outside of the R group definition. Likewise, C8-C16 coco nitrile corresponds to an R value of C7-C15 in Formula (I). The C10 value in the first column of Table 1 corresponds to an R value of C9 in Formula (I) for the same reasons.

[2] = Appearance, flow and viscosity of (DMAPA) DDBS diluted with fatty nitrile; type: physicochemical
Excerpt: Dimethylaminopropylamine dodecylbenzene sulfonic acid (DMAPA-DDBS) is generally highly viscous. A low viscosity liquid sample of (DMAPA) DDBS was obtained by mixing 51.69 g of DDBS, 40 g tallow nitrile (fractionated), followed by slowly adding 8.31 g DMAPA.
A liquid sample of dimethylaminopropylamine (DMAPA) DDBS was obtained by mixing 43.08 g dodecylbenzene sulfonic (DDBS) acid, 25 g oleic nitrile, 25 g castor oil ethoxylate (10EO), followed by slowly adding 6.92 g DMAPA.

[3] = 0.1 g in 5 g C14-C18 (tallow) nitrile
[4] = in 100 g C10 nitrile, room temperature
[5] = in 100 g C14-C18 (tallow) nitrile
[6] = <10 g in 100 g C14-C18 (tallow) nitrile

CNC.O=C(O)COc1ccc(Cl)cc1Cl [2,4-D DMA]
Result (solubility in alkyl nitrile) [1, 3]: Solid at bottom

CCOP(=S)(OCC)Oc1nc(Cl)c(Cl)cc1Cl [Chlorpyrifos]
Result (solubility in alkyl nitrile) ([1]; 44 g in 100 g C14-C18 (tallow) nitrile): Dissolved | Wt, g (pesticide dissolved) ([1]; in 20 g C10 nitrile + 80 g Solvesso 100 solvent, room temperature): 102 g | Wt, g (pesticide dissolved) ([1]; in 20 g C10 nitrile + 80 g methyl ester solvent, room temperature): 87 g | Wt, g (pesticide dissolved) ([1]; in 30 g C10 nitrile + 70 g methyl ester solvent, room temperature): 100 g | Wt, g (pesticide dissolved) ([1]; in 35 g C10 nitrile + 65 g Solvesso 100 solvent, room temperature): 103 g | Wt, g (pesticide dissolved) ([1]; in 40 g C10 nitrile + 60 g methyl ester solvent, room temperature): 166 g | Wt, g (pesticide dissolved) ([1]; in 50 g C10 nitrile + 50 g Solvesso 100 solvent, room temperature): 102 g | Wt, g (pesticide dissolved) [1, 4]: 84 g | Wt, g (pesticide dissolved) [1, 5]: 44 g | amount the C10 nitrile can dissolve ([1]; in C10 nitrile (Arneel 10D)): about 46%

O=C(O)CNCP(=O)(O)O [Glyphosate acid]
Result (solubility in alkyl nitrile) [1, 3]: Solid at bottom

COc1cc(OC)nc(NC(=O)NS(=O)(=O)c2ncccc2C(=O)N(C)C)n1 [Nicosulfuron]
Result (solubility in alkyl nitrile) ([1]; 0.114 g (92.22%) in 1 g C14-C18 (tallow) nitrile): Suspension

CC(C)(C)C(O)(CCc1ccc(Cl)cc1)Cn1cncn1 (stereo not drawn) [Tebuconazole]
Result (solubility in alkyl nitrile) ([1]; 0.4 g in 5 g C14-C18 (tallow) nitrile): Hazy to clr | Result (solubility in alkyl nitrile) [1, 6]: Dissolved | Wt, g (pesticide dissolved) [1, 4]: <10 g | Wt, g (pesticide dissolved) [1, 5]: <10 g

CON=C(C(=O)OC)c1ccccc1CON=C(C)c1cccc(C(F)(F)F)c1 [Trifloxystrobin]
Result (solubility in alkyl nitrile) [1, 6]: Dissolved | Wt, g (pesticide dissolved) ([1]; in 50 g C10 nitrile + 50 g rapeseed methylester (solvent), room temperature): 14 g | Wt, g (pesticide dissolved) [1, 4]: 19 g | Wt, g (pesticide dissolved) [1, 5]: <10 g

NC(N)=O [Urea]
Result (solubility in alkyl nitrile) ([1]; 0.26 g in 1 g C14-C18 (tallow) nitrile): Doesn't dissolve | solvency power of fatty nitrile towards the agrochemical ([1]; fatty nitrile as solvent): very little solvency power

Dimethylaminopropylamine dodecylbenzene sulfonic acid [(DMAPA) DDBS]
appearance, flow and viscosity of sample ([2]; 43.08 g DDBS acid, 25 g oleic nitrile, 25 g castor oil ethoxylate (10EO), 6.92 g DMAPA): clear, flowed at about 0° C., and had acceptable viscosity | appearance, flow and viscosity of sample ([2]; 51.69 g DDBS, 40 g tallow nitrile (fractionated), 8.31 g DMAPA): clear, flowed freely at room temperature and had acceptable viscosity | appearance, flow and viscosity of sample ([2]; oleic nitrile instead of tallow nitrile): flowed better at lower temperatures

Pyritherin
Result (solubility in alkyl nitrile) ([1]; 3.15 g in 5 g C14-C18 (tallow) nitrile): Clear
